Point of comparison: COC[C@H]1CN(c2noc3cc(OS(=O)(=O)C(F)(F)F)ccc23)C(=O)O1, melting point 94 °C. Against it:
- CC(C)CC[C@H](O)[C@H](CC1CCCCC1)NC(=O)[C@H](Cc1c[nH]cn1)NC(=O)[C@H](Cc1ccccc1)NC(=O)N1CCOCC1 — higher, 108 to 110 °C
- O=C(O)C1CCC=C(c2ccccc2)C1 (configuration not stated) — lower, 77 to 80 °C
- CC(=O)OCC1CCCn2c(c(C3=C(c4cn(C)c5ccccc45)C(=O)OC3=O)c3ccccc32)C1 (configuration not stated) — higher, 164 to 166 °C
- NC(=O)Nc1ccc(N2CCN(c3ccncc3)CC2)cc1 — higher, > 250 °C
- COc1cc(OC)nc(NC(=O)NS(=O)(=O)Oc2ccccc2C(=O)OCCCl)n1 — higher, 148 to 150 °C
- COCCO[C@@H]1c2ccc3c(nc(C)n3C)c2O[C@H](c2ccccc2)[C@H]1OC(=O)COC — higher, 200 °C
- O=C(O)c1ccc(NC(=O)C(F)(F)F)nc1 — higher, > 255 °C
- O=[N+]([O-])c1nccnc1NCC(O)CO (configuration not stated) — higher, 100 to 102 °C
- Nc1ccc(-c2cnc(CSCCOc3ccccc3)o2)cc1 — higher, 110 to 111 °C
- CCCc1c(OCCCCC(=O)N(CC)CC)ccc(C(C)=O)c1O — higher, 95 to 97 °C
- Cc1nc(N)nc(N)c1OCCCOc1ccccc1C(F)(F)F — higher, 132 to 134 °C
- COc1ccc(-c2[nH]cnc2-c2cc(OC)c(N)c(OC)c2)cc1N — higher, 140 to 142 °C
- CN1C(=O)C2c3c([nH]c4ncccc34)-c3nccn3C2C1=O (configuration not stated) — higher, 222 to 224 °C
- COc1cc2c(cc1OC)C(C)(CCC(=O)O)OCC2=O (configuration not stated) — higher, 172 to 173 °C
- O=C(O)COc1ccc(SCc2ccc(OCc3ccc(CF)cc3)cc2)c2c1CCC2 — higher, 153 to 155 °C
- COCc1cccc(CCC(O)c2ccccc2)c1NC(=O)CC1c2ccccc2Oc2ccccc21 (configuration not stated) — higher, 144 to 146 °C
- CCOC(=O)CN1[C@H](C)CN(c2ccc(N)cc2C#N)C[C@@H]1C — lower, 45 °C
- CCOC(=O)C1=C(N)NC(N)=C(C(=O)OC(C)C)C1c1ccccc1[N+](=O)[O-] (configuration not stated) — higher, 110 °C
- CN(C)n1c(S)nc2ccccc2c1=O — higher, 245 to 249 °C
- C=CCn1c(COCc2ccc(OC)cc2)nc(C(C)C)c1Sc1cc(Cl)cc(Cl)c1 — higher, 100 to 102 °C
- Cc1cccc(COc2cccc(O)c2)c1C(=O)O — higher, 112 to 113 °C
- Cc1cc(-c2ccc(C(F)(F)F)cc2)nc(-c2ccnc(-c3ccc(S(N)(=O)=O)s3)c2)n1 — higher, 264 °C
- COc1ccc(C2(CCN3CCC(O)(c4nc5ccccc5n4Cc4ccc(F)cc4)CC3)CCN(C(=O)c3ccccc3)C2)cc1OC (configuration not stated) — higher, 111 to 114 °C
- O=C1Oc2ccccc2NC1Cl (configuration not stated) — higher, 133 to 136 °C
- Oc1ccc(Cc2ccc(OCc3ccccc3)cc2)cc1 — higher, 95 to 96 °C
- CCCCCNc1nc(NCC(C)C)c2ncn(CC(=O)O)c2n1 — higher, 139 to 148 °C
- O=C(CC[C@H]1CC1(c1ccccc1)c1ccccc1)Oc1ccc([N+](=O)[O-])cc1 — lower, 76 to 77 °C
- CC(CC#CCN1CCN(C)CC1)C(=O)N1c2ccccc2C(=O)Nc2cccnc21 (configuration not stated) — higher, 212 to 214 °C
- COc1ccc(C(=O)Nc2ccncc2)c2c1oc1ccc(C(F)(F)F)cc12 — higher, 259 °C
- COc1ccc(/C=C/C(=O)c2ccc(OCc3ccccc3)cc2OCc2ccccc2)c(OC)c1C — higher, 125 °C
- COCc1cc(O)n[nH]1 — higher, 123 to 125 °C
- Cn1nnnc1-c1cn(C)c2cc(Cl)c(F)cc2c1=O — higher, 264 to 267 °C
- CCOC(=O)c1c(-c2ccccc2C)c2cc3c(cc2[nH]c1=O)CCC3 — higher, 296 to 298 °C
- Cc1cc(-n2nc3ccc(Cl)cc3n2)c(O)c(C(C)(C)C)c1 — higher, 138 to 140 °C
- Cc1cccc2c1C1(COc3cc4c(cc31)OCO4)C(=O)N2Cc1ccc(C(F)(F)F)o1 (configuration not stated) — higher, 117 to 119 °C
- Cc1c(Br)c2c(c(C)c1NC(=O)CC(C)(C)C)C(c1ccc(C(C)C)cc1)CO2 (configuration not stated) — higher, 118 to 119 °C
- Cn1nc(-c2cnc(N)nc2-c2cccs2)ccc1=O — higher, 270 °C
- COc1ccc(OC)c(Cc2cccc(N)c2)c1 — lower, 81 to 84 °C
- COc1cc2c(cc1C=O)C(C)(C(F)(F)F)OCC2 (configuration not stated) — lower, 82 to 93 °C
- C[C@@H]1C(=O)C[C@H]2C[C@@H]1OO[C@@]2(C)/C=C/c1c(F)c(F)c(F)c(F)c1F — higher, 128 °C
- N#Cc1cc(-c2nc3ccccc3s2)ccc1N — higher, 207 to 211 °C
- CCCCCS(=O)(=O)NC(=O)CCc1cc(OCCCC)nn1Cc1ccc(Cl)cc1Cl — higher, 104 to 105 °C
- O=Cc1ccc(O)c(CP(=O)(O)O)c1 — higher, 252 to 253 °C
- COc1ccc([C@@H]2Sc3cc(Oc4ccc(F)cc4)ccc3N(CCN(C)C)C(=O)[C@@H]2OC(C)=O)cc1F — higher, 128 to 132 °C
- CC(C)n1c(C=O)c(-c2ccc(F)cc2)c(-c2ccccc2)c1C(=O)Nc1cccc(S(N)(=O)=O)c1 — higher, 224 to 225 °C
- CC(C)C1=C(c2ccc(F)cc2)C(=O)C(C(C)C)=C(C(C)C)C1=O — higher, 122 to 124 °C
- CC(C)N1CCN=C1c1ccccc1C(=O)c1ccc(Cl)cc1 — higher, 114 to 117 °C
- COc1cccc(C(C#N)=NOS(C)(=O)=O)c1 — higher, 105 to 107 °C
- O=C(O)c1ccccc1Sc1cccc(OCc2ccc3ccccc3n2)c1 — higher, 169 to 171 °C
- C/C=C/Cn1nc(C(=O)c2cccc(O)c2)c2ccccc21 — lower, 75 to 78 °C
- O=C(c1ccc(F)cc1)C1CCN(CCCN2c3ccccc3-c3ccccc3S2(=O)=O)CC1 — higher, 114 °C
- COC(=O)CC(CCc1ccc(C)cc1)NC(C)=O (configuration not stated) — lower, 50 to 51 °C
- CCc1nn(C(=O)Oc2ccccc2)c(=O)n1C — higher, 141 °C
- CC(C)(C)c1cc(SCc2cccc(-c3nnn[nH]3)c2)cc(C(C)(C)C)c1O — higher, 177 to 178 °C
- CC(C)C(=CC(N)C(=O)O)CP(=O)(O)O (configuration not stated) — higher, 201 °C
- COc1ccc(Cc2nc3cccc(NCc4ncc[nH]4)c3o2)cc1OC1CCCC1 — higher, 179 to 180 °C
- CCCc1nnc(Cc2cn(-c3ccccc3)nc2OCc2ccc(OCc3nc(-c4ccco4)oc3C)c(OC)c2)o1 — higher, 102 to 103 °C
- NC(=O)c1c(I)c(C(=O)N(CC(O)CO)CC(O)CO)c(I)c(N2CCCCC2=O)c1I (configuration not stated) — higher, 214 to 219 °C
- COC(=O)CS(=O)(=O)CCCC=C1SC=CS1 — lower, 85 to 86 °C
- CCOc1ccc(-c2nc(-c3cccc(CO)n3)cs2)cc1OCC — higher, 109 to 113 °C
- Fc1ccc(-c2cc(C(C(F)(F)F)C(F)(F)F)[nH]c2-c2ccc(F)cc2)cc1 — higher, 123 to 124 °C
- CCCCNc1c(C(=O)OCC)cnc2nn(C)cc12 — higher, 95 to 97 °C
- CN(C)CCNc1cc(Cl)nc(-c2ccc(Cl)c(Cl)c2)n1 — higher, 99.5 to 102 °C
- CCCN(C)S(=O)(=O)c1cc(-n2c(=O)cc(C(F)(F)F)n(C)c2=O)ccc1Cl — higher, 144 to 145 °C
- C[C@H](O)[C@@H](O)[C@@H](O)C(=O)CO — higher, 158 to 160 °C
- CCOC(=O)c1cc(-c2ccc(F)cc2)sc1N — higher, 98 to 99 °C
- COC(=O)c1cn2c(n1)COc1ccc(Cl)cc1-2 — higher, 239 to 240 °C
- C[C@]1(CN)COc2cccc(-c3ccccc3)c2O1 — higher, 130 to 133 °C
- COc1cc2c(cc1OC)CN(C(c1ccccc1)c1ccccc1)C2 — higher, 126 to 128 °C
- O=C(O)c1c2ccccc2nc2ccc3ccccc3c12 — higher, 169 to 170 °C
- Cc1nn(-c2ccc([N+](=O)[O-])cc2F)c(=O)n1C(F)F — lower, 72 to 77 °C
- C=CC(=O)Oc1ccc(NS(C)(=O)=O)cc1 — higher, 136 to 140 °C
- NS(=O)(=S)CCCc1ccccc1 (configuration not stated) — higher, 98 to 101 °C
- NOc1ccc2c(c1)CCCC2=O — lower, 55.5 to 57 °C
- COc1cc(C(=O)c2csc(Nc3ccc(Cl)cc3)n2)cc(OC)c1OC — higher, 165 to 166 °C
- N#CC(F)(F)C(F)(F)C(F)(F)C(F)(F)C#N — higher, 132 °C
- CCOCc1cc2cc(Cl)ccc2oc1=Nc1ccc(Br)cc1 — higher, 119 to 121 °C
- c1ccc(Cc2ncc(-c3ccncc3)s2)cc1 — lower, 46 to 47 °C
- CCCN1N=C(c2ccc(F)cc2)c2cc(Cl)ccc2CS1(=O)=O — higher, 122 °C
- Cc1oc(-c2ccco2)nc1COc1ccc(COc2nn(Cc3ccccc3)cc2C(=O)O)cc1 — higher, 170 to 171 °C
- CCc1cc([N+](=O)[O-])c(N)c([N+](=O)[O-])c1C — higher, 101 to 102 °C
- O=C(NCc1ccc(Cl)c(C(F)(F)F)c1)Nc1cccc2[nH]ccc12 — higher, 197 °C
- COc1cc2nc(N3CCN(C(=O)C=Cc4ccccc4)CC3)nc(N)c2cc1OC — higher, 245 to 248 °C
- COC1(c2cccc(Oc3nc(-c4ccccc4)c(-c4ccc(S(N)(=O)=O)cc4)o3)c2)CCOCC1 — higher, 145 to 147 °C
- COc1ccc(C(O)(C(F)(F)F)C(F)(F)F)cc1C=O — higher, 160 to 161 °C
- CC(=O)Nc1ccccc1CS(=O)c1nccn1Cc1ccccn1 (configuration not stated) — higher, 146 to 148 °C
- Cc1ccccc1NC(=O)CN1C[C@@H](C)N(c2ncnc3sccc23)[C@@H](C)C1 — higher, 174 to 175 °C
- CC#CCOc1cc2c(cc1CCC)OCO2 — lower, 39 to 40 °C
- COc1ccc(C(=O)NCC(=O)N2c3ccccc3N(Cc3ccccc3)C(=O)[C@H]3CCC[C@H]32)cc1 (relative stereo) — higher, 160 to 161 °C
- CC(=O)NC(COC(F)F)C(=O)NCc1ccccc1 (configuration not stated) — higher, 173 °C
- CC(=O)c1cc(N(C)C)ccc1NC(=O)c1ccccc1OCc1ccccc1 — higher, 132 to 134 °C
- CCCCCCC(C)(C)c1ccc(C2CCCNC2)c(O)c1 (configuration not stated) — higher, 138 to 140 °C
- N=C(Cc1ccccc1)NS(=O)(=O)C=Cc1ccc(Cl)c(Cl)c1 — higher, 151 to 155 °C
- CC(=O)c1ccc(C=Cc2ccc(C(C)=O)s2)s1 — higher, 248 °C
- CC(NC(=O)c1cccc(I)c1)C(O)c1ccccc1 (configuration not stated) — higher, 139 to 140 °C
- O=C1C[C@H](O)C(=O)N1Cc1ccccc1 — higher, 110 to 113 °C
- COC(=O)[C@@H]1[C@H](/C=C/c2ccccc2)N1S(=O)c1ccc(C)cc1 (some centres not stated) — higher, 107 to 109 °C
- CC(C)(C)OC(=O)N1CCC(CCN2C(=O)c3ccccc3C2=O)CC1 — higher, 112 to 114 °C
- COc1ccc(N2CCN(S(=O)(=O)c3cccc(/C=C/C(=O)NO)c3)CC2)cc1 — higher, 203 °C
- Cc1cc(Br)cnc1CCCCNC1=NS(=O)(=O)c2ccccc21 — higher, 232 to 244 °C
- O=C(NCCc1ccccc1Cl)c1ccccc1 — lower, 70.1 to 71 °C
